Measured values published in patent US7371536B2, “Methods for transporting vitamin C” (priority 1999, dated 2008).

Assays:
Assay type in all cases: cell-based
human SVCT2 = molecular target: T1, human SVCT2 (Homo sapiens, UniProt Q9UGH3, A167T); test: L-[14C]ascorbic acid radiotracer uptake in Xenopus oocytes expressing human SVCT2
T1 construct: expressed in transfected cells; host or cells: Xenopus laevis oocytes injected with cRNA (vector pTLN2)
Description: (§1) Functional characterization in Xenopus oocytes—SVCT1 and SVCT2 cDNAs were subcloned into the pTLN2 vector (to improve functional expression in oocytes) and used for cRNA synthesis in vitro using the MEGAscript kit and T7 RNA polymerase (from Ambion). Oocytes were isolated from Xenopus laevis, treated with collagenase A and maintained at 18° C. in modified Barths' medium. Oocytes were injected with 15 ng SVCT1 or SVCT2 cRNA or water only. The radiotracer uptake and voltage-clamp experiments described below were conducted 2-5 days post-injection in standard medium of composition 100 mM NaCl, 2 mM KCl, 1 mM CaCl2, 1 mM MgCl2, and 10 mM HEPES (buffered to pH 7.5 with Tris base). For low-Na^+ or Na^+-free media, NaCl was replaced with choline chloride. For pH-dependence experiments, Na^+ media were buffered to between pH 5.5 and pH 8.0 using 0-5 mM MES, 0-5 mM HEPES and 0-5 mM Tris base. L-Ascorbic acid-containing solutions were always freshly prepared and used immediately. Radiotracer uptake was determined by incubating 8-12 oocytes for 30 min (within the time-course of linear uptake) in standard Na^+, low-Na^+ or Na^+-free media with 10-500 μM L-[1-^14C]ascorbic acid (final specific activity ≈0.3 GBq/mmol). Oocytes were solubilized with 10% SDS and carbon-14 content measured by liquid scintillation counting. A two-microelectrode voltage-clamp was used to measure currents associated with SVCT1 expressed in oocytes. Oocytes were superfused at 22° C. in standard Na^+ medium and clamped at −50 mV. Current was continuously monitored by sampling at 1 Hz. Test solutions were always washed out with substrate-free, Na^+-free medium at pH 7.5 for several minutes. Once again, saturation kinetics data were fit to a modified Hill equation in which I and Imax were replaced by uptake V and maximal velocity Vmax for analysis of radiotracer uptake data.

rat SVCT2 = molecular target: T2, rat SVCT2 (Rattus norvegicus, UniProt Q9WTW8); test: Two-microelectrode voltage-clamp of Xenopus oocytes expressing rat SVCT2; settings: oocytes expressing SVCT2, in the presence of Na^+
T2 construct: expressed in transfected cells; host or cells: Xenopus laevis oocytes injected with cRNA (vector pTLN2)
Description: Rat SVCT1 and SVCT2 clones were obtained by isolating SVCT1 cDNA from rat kidney by expression cloning as described in Hediger et al., Methods Enzymol. 296:17-52 (1998). The SVCT2 cDNA was subsequently isolated by PCR-based homology screening of a rat brain cDNA library. A 2.5-kb rabbit cDNA with 96% identity to residues 96-505 of the rat SVCT2 was obtained by RT-PCR. Radiotracer and voltage-clamp experiments were performed (at 22° C.) in Xenopus oocytes two to seven days after injection with ˜25 ng of SVCT1 or SVCT2 cRNA synthesized in vitro. Radiotracer uptake was determined by incubating 6-10 oocytes for 30 or 60 min in standard 100 mM Na^+ or Na^+-free media with 10-600 μM L-[^14C]ascorbic acid. […]
Radiotracer uptake was determined by incubating 6-10 oocytes for 30 or 60 min in standard Na^+ or Na^+-free media (at 22° C.) with 10-600 μM L-[1-^14C]ascorbic acid (final specific activity 0.3 GBq/mmol). Oocytes were solubilized with 10% SDS and [^14C]-content was measured by liquid scintillation counting. […] Steady-state data (obtained by averaging the points over the final 16.7 ms at each Vm step when step-changes were applied) were fitted to equation (1) below, for which I is the evoked current (i.e., the difference in steady-state current measured in the presence and absence of substrate), Imax the derived current maximum, S the concentration of substrate S (Na^+ or L-ascorbic acid), […]

rat SVCT1 = molecular target: T3, rat SVCT1 (Rattus norvegicus, UniProt Q9WTW7); test: Two-microelectrode voltage-clamp of Xenopus oocytes expressing rat SVCT1
T3 construct: expressed in transfected cells; host or cells: Xenopus laevis oocytes injected with cRNA
Description: Rat SVCT1 and SVCT2 clones were obtained by isolating SVCT1 cDNA from rat kidney by expression cloning as described in Hediger et al., Methods Enzymol. 296:17-52 (1998). The SVCT2 cDNA was subsequently isolated by PCR-based homology screening of a rat brain cDNA library. […] Radiotracer and voltage-clamp experiments were performed (at 22° C.) in Xenopus oocytes two to seven days after injection with ˜25 ng of SVCT1 or SVCT2 cRNA synthesized in vitro. Radiotracer uptake was determined by incubating 6-10 oocytes for 30 or 60 min in standard 100 mM Na^+ or Na^+-free media with 10-600 μM L-[^14C]ascorbic acid.
Functional characterization of SVCT1 and SVCT2 in Xenopus oocytes—Oocytes were isolated from Xenopus laevis (under 2-aminoethylbenzoate anaesthesia), treated with collagenase A and stored at 18° C. in modified Barths' medium. Oocytes were injected with ≈25 ng of SVCT1 or SVCT2 cRNA synthesized in vitro, or water only (control), and incubated 2-7 days before radiotracer or voltage-clamp experiments were performed. Standard Na^+ uptake medium comprised 100 mM NaCl, 2 mM KCl, 1 mM CaCl2, 1 mM MgCl2, 10 mM HEPES (pH 7.5 with Tris base). For Na^+-free or low-Na^+ media, NaCl was replaced by equimolar choline chloride; likewise, Cl^− was replaced by gluconate for Cl^−-free medium. For pH-sensitivity experiments, Na^+ media were buffered at pH 5.5-8.0 using 0-5 mM MES, 0-5 mM HEPES and 0-5 mM Tris base. L-Ascorbic acid-containing solutions were freshly-prepared (without dithiothreitol) and used immediately.
Radiotracer uptake was determined by incubating 6-10 oocytes for 30 or 60 min in standard Na^+ or Na^+-free media (at 22° C.) with 10-600 μM L-[1-^14C]ascorbic acid (final specific activity 0.3 GBq/mmol). Oocytes were solubilized with 10% SDS and [^14C]-content was measured by liquid scintillation counting. A two-microelectrode voltage-clamp was used to measure currents in control oocytes and oocytes injected with rat SVCT1 or rat SVCT2 cRNA. Microelectrodes (resistance 0.5-5 MΩ) were filled with 3 M KCl. Oocytes were superfused at 22° C. in standard Na^+ medium and clamped at a holding potential (Vh) of −50 mV. For continuous current monitoring at Vh=−50 mV, the current was low-pass filtered at 20 Hz (sampling at 1 Hz). Additionally, step-changes in membrane potential (Vm) were applied (from +50 mV to −150 mV in 20-mV increments), each for a duration of 100 ms, before and after the addition of substrate; current was low-pass filtered at 500 Hz and digitized at 5 kHz. Test solutions were always washed out with substrate-free medium (100 mM choline chloride) at pH 7.5 for several minutes. Steady-state data (obtained by averaging the points over the final 16.7 ms at each Vm step when step-changes were applied) were fitted to equation (1) below, for which I is the evoked current (i.e., the difference in steady-state current measured in the presence and absence of substrate), Imax the derived current maximum, S the concentration of substrate S (Na^+ or L-ascorbic acid),
[formula] the substrate concentration at which current was half-maximal, and nH the Hill coefficient for S. (For radiotracer experiments, I was replaced with velocity V and Imax replaced with the derived maximal velocity, Vmax.)

human SVCT1 = molecular target: T4, human SVCT1 (Homo sapiens, UniProt Q9UHI7); test: Two-microelectrode voltage-clamp of Xenopus oocytes expressing human SVCT1
T4 construct: expressed in transfected cells; host or cells: Xenopus laevis oocytes injected with cRNA (vector pTLN2)
Description: as §1

T1 sequence (Q9UGH3 whole entry A167T): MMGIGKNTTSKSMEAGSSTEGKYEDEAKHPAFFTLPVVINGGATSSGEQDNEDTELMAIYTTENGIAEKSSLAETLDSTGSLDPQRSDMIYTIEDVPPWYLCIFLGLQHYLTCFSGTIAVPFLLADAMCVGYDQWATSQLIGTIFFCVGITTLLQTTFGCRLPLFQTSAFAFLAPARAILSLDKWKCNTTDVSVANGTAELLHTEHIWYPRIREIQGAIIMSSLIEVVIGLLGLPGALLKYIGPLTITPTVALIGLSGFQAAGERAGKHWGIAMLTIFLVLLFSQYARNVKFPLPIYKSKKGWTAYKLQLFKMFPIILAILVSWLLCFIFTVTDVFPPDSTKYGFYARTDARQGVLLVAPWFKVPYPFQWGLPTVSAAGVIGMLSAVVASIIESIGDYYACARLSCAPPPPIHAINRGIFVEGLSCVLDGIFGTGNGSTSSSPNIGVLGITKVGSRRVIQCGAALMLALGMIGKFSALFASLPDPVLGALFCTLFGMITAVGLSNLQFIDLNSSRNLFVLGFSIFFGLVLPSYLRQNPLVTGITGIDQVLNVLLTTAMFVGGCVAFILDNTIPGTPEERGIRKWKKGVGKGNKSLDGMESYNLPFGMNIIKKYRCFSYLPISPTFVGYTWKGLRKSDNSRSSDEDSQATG
T3 sequence (Q9WTW7 whole entry): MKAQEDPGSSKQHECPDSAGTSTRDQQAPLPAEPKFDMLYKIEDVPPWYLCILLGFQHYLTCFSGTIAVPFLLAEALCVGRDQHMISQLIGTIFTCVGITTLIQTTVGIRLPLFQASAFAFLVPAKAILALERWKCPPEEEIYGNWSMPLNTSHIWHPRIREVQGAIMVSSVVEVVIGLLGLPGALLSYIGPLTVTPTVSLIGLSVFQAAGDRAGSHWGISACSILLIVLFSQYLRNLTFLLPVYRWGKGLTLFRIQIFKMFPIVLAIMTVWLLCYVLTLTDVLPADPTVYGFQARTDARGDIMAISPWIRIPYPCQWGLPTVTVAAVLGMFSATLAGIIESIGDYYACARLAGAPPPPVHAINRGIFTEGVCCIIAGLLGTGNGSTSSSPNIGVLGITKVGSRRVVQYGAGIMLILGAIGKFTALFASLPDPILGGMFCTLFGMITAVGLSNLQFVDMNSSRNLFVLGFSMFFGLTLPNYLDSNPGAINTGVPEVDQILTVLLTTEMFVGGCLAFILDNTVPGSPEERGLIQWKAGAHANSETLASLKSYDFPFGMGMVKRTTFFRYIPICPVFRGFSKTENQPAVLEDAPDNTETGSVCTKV
T4 sequence (Q9UHI7 whole entry): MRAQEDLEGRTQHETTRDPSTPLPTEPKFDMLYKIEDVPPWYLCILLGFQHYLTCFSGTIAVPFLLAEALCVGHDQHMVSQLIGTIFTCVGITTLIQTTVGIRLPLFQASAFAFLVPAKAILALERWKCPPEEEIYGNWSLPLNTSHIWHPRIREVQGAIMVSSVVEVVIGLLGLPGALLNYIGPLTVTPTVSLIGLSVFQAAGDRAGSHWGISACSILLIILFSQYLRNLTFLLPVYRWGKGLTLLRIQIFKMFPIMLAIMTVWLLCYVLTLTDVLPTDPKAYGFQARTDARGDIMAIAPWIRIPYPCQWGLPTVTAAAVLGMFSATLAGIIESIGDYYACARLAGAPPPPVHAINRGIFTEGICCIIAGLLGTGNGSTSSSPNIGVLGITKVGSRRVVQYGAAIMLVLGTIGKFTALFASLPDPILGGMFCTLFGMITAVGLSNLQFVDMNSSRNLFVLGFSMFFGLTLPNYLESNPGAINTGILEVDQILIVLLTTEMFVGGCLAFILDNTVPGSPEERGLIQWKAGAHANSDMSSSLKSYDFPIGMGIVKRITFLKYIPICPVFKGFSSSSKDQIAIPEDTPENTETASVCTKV
T2 sequence (Q9WTW8 whole entry): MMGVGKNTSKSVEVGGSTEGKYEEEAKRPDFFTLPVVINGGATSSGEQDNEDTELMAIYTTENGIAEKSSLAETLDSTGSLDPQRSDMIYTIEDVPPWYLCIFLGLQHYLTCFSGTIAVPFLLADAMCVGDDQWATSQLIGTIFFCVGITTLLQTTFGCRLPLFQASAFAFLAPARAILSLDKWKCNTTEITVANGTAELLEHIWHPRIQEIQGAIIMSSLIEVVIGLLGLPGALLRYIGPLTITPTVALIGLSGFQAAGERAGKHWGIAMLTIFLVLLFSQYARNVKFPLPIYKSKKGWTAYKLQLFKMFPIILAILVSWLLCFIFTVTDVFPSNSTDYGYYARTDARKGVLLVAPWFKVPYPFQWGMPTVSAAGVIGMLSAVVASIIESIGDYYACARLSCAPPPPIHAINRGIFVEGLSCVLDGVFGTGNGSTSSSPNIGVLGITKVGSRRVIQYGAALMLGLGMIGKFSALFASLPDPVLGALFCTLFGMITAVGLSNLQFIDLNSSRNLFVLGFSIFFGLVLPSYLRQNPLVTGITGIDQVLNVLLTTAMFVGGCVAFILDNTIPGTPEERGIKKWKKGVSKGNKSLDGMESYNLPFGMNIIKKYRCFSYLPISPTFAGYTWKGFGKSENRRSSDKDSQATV

O=C1O[C@H]([C@@H](O)CO)C(O)=C1O [L-ascorbic acid]
stimulation of uptake compared with control oocytes (human SVCT2): 15 fold | uptake of L-[14C]ascorbic acid (human SVCT2): 1.2±0.1 pmol/min per oocyte | K0.5 of L-[14C]ascorbic acid transport (human SVCT2; radiotracer uptake, FIG. 10): 65 µM | inhibition of the uptake of 100 μM L-[14C]ascorbic acid (in words) (human SVCT2; saturating concentration): inhibited | L-ascorbic acid-evoked reversible inward currents (rat SVCT2): up to −10 nA | Hill coefficient (nH) (rat SVCT1; evoked currents, −50 mV): ≈ 1 | reduction of evoked currents at pH 5.5 versus pH 7.5 (rat SVCT1; extracellular pH 5.5 compared with pH 7.5): 50% | L-ascorbic acid-evoked reversible inward currents (rat SVCT1; oocytes expressing SVCT1, in the presence of Na^+): up to −100 nA | K0.5 (L-ascorbic acid concentration at which currents were half-maximal) (rat SVCT1; −50 mV, 100 mM Na^+): 30 µM | reduction in current at pH 5.5 compared with pH 7.5 (human SVCT1; 500 μM L-ascorbic acid, −50 mV): > 60% | L-ascorbic acid-evoked current (human SVCT1; 500 μM, −50 mV, mean±SEM from eight oocytes): −114±20 nA | L-ascorbic acid-evoked reversible inward currents (human SVCT1; in the presence of extracellular Na^+): up to −150 nA | K0.5 based on evoked currents (human SVCT1; −50 mV, 100 mM Na^+, mean±propagated SEM from 5 oocytes): 54 ± 10 µM
